According to article PMC6271011, “Synthesis, Leishmanicidal and Cytotoxic Activity of Triclosan-Chalcone, Triclosan-Chromone and Triclosan-Coumarin Hybrids” (Molecules, 2014):
Values joined by “and” are separate entries in the source; they are usually repeats but may differ in a detail not shown here. Equal entries are not always repeated. Where two headings read alike, the source gives them in different places.

Key:
[1] = tested on: intracellular amastigotes of L. (V) panamensis; experiment: Leishmanicidal activity against intracellular amastigotes (GFP, flow cytometry, 72 h); type: cell-based, Leishmania (Viannia) panamensis; conditions: for Leishmanicidal activity % Inhibition: intracellular amastigotes; for SI (Selectivity Index = LC50/EC50): LC50 U-937 / EC50 intracellular amastigotes
Procedure: The leishmanicidal activity of compounds was evaluated on intracellular amastigotes of L. panamensis transfected with the green fluorescent protein gene (MHOM/CO/87/UA140pIR-GFP). Effect of each compound was determined according to the inhibition of the infection evidenced by both decrease of the infected cells and decrease of intracellular parasite load. Briefly, U-937 human cells at a concentration of 3 × 10^5 cells/mL in RPMI 1640 and 0.1 μg/mL of PMA (phorbol-12-myristate-13-acetate) were infected with promastigotes in stationary phase growth in a 15:1 parasites per cell ratio and incubated at 34 °C and 5% CO2 for 3 h. Cells were washed two times with phosphate buffer solution (PBS) to eliminate not internalized parasites. Fresh RPMI 1640 1 mL was added and cells were incubated during 24 h to guarantee multiplication of intracellular parasites.
After 24 h of infection, the culture medium was replaced by fresh culture medium containing each compound at concentrations of 20 μg/mL. After 72 h, the inhibition of the infection progress was determined. Cells were removed from the bottom plate with a trypsin/EDTA (250 mg) solution. Recovered cells were centrifuged at 1100 rpm during 10 min at 4 °C, the supernatant was discarded and cells were washed with 1 mL of cold PBS and centrifuged at 1100 rpm during 10 min at 4 °C. Supernatant was discarded and cells were suspended in 500 μL of PBS and analyzed by flow cytometry (FC 500MPL, Cytomics, Brea, CA, USA) counting 20.000 events. All determinations for each compound and standards were carried out in triplicate, in two isolated experiments. Activity of tested compounds was carried out in parallel with infection progress in culture medium alone and in culture medium with amphotericin B 0.05 μg/mL and meglumine antimoniate (10.0 μg/mL) as control drugs. […] The infected cells were exposed against each concentration of synthesized compounds during 72 h, then, cells were removed and tested by flow cytometry as described before.
Antileishmanial activity was determined according to percentage of infected cells and parasite load obtained for each experimental condition by the cytometer. Percentage of infected cells was determined as the number of positive events by double fluorescence (green for parasites and red for cells) using dotplot analysis. On the other hand, the parasitic load was determined by analysis of mean fluorescence intensity (MFI).
The parasitemia inhibition was calculated by Equation (2), where the MFI of control, corresponds to 100% of parasitemia. In turn, inhibition percentage corresponds to 100% Parasitemia.
The selectivity index (SI), was calculated by dividing the cytotoxic activity and the leishmanicidal activity using the following formula: SI = CL50/CE50.

[2] = tested on: human promonocytic cell line U937; experiment: in vitro; conditions: U-937 cells, MTT, 72 h, Lethal Concentration 50
Procedure: (§1) The cytotoxic activity of the compounds was assessed based on the viability of the human promonocytic cell line U937 (ATCC CRL-1593.2^TM) evaluated by the MTT (3-(4,5-dimethylthiazol-2-yl)-2,5-diphenyltetrazolium bromide) assay. In brief, cells were grown in 96-well cell-culture dishes at a concentration of 100,000 cells/mL in RPMI-1640 supplemented with 10% FBS and the corresponding concentrations of the compounds, starting at 200 µg/mL in duplicate. The cells were incubated at 37 °C with 5% CO2 for 72 h in the presence of the compounds, and then the effect was determined using the MTT assay, incubating at 37 °C for 3 h. The effect of the compounds was determined by measuring the activity of the mitochondrial dehydrogenase by adding 10 µL/well of MTT solution (0.5 mg/mL) and incubating at 37 °C for 3 h. The reaction was stopped by adding a 50% isopropanol solution with 10% sodium dodecyl sulfate for 30 min. Cell viability was determined based on the quantity of formazan produced, according to the optical density (O.D) obtained at 570 nm in a Bio-Rad (Hercules, CA, USA) ELISA instrument. Cultured cells in the absence of extracts were used as viability controls, while meglumine antimoniate and amphotericin B were used as cytotoxicity controls. Assays were performed twice with three replicates per each concentration tested.
(§2) Cytotoxicity was determined according to viability and mortality percentages obtained for each isolated experiment (compounds, amphotericin B, meglumine antimoniate and culture medium alone). The results were expressed as 50 lethal concentrations (LC50), that corresponds to the concentration necessary to eliminate 50% of cells, calculated by Probit analysis. Percentage of viability was calculated by Equation (1), where the optical density (O.D) of control, corresponds to 100% of viability. In turn, mortality percentage corresponds to 100% viability: % Viability = (O.D Exposed cells)/(O.D Control cells) × 100 (1)
(§3) The degree of toxicity was established according to the LC50 value using the following scale: highly toxic: LC50 < 50 μg/mL, toxic: LC50 > 50 to < 100 μg/mL; moderately toxic: LC50 > 100 to < 200 μg/mL and potentially non-toxic: LC50 > 200 μg/mL.

[3] = tested on: intracellular amastigotes of L. (V) panamensis; experiment: Leishmanicidal activity against intracellular amastigotes (GFP, flow cytometry, 72 h); type: cell-based, Leishmania (Viannia) panamensis; conditions: for inhibition at 20 µg/mL: read-out: Leishmanicidal activity % Inhibition; for EC50: intracellular amastigotes in U-937 cells
in vitro = conditions: human
Procedure: as §1, §2, §3

L. major = tested on: L. major; design: method as in PMID 15558191; conditions: against L. major; read-out: 50% inhibitory concentration (IC50), growth inhibition; cited from earlier work
[4] = tested on: axenic and intracellular amastigotes of Leishmania panamensis; design: method as in doi:10.1007/s00044-011-9886-8; conditions: cited from earlier work
[5] = at 20 µg/mL, intracellular amastigotes

Compound | inhibition at 20 µg/mL [3, 5] [%] | CC50 at 72 h (in vitro) | EC50 [3] | SI (Selectivity Index = LC50/EC50) [1] | also measured
3,4-dimethoxy-4'-hydroxychalcone [3,4-Dimethoxy-4'-hydroxychalcone (6), reference compound] |  |  |  |  | Leishmanicidal activity % Inhibition ([1]; at 20 µg/mL, 72 h): 52.4 ± 6.5%; Leishmanicidal activity EC50 ([1]; intracellular amastigotes in U-937 cells, 72 h): 20.03 ± 1.4 µg/mL; EC50 ([1]; intracellular amastigotes in U-937 cells, 72 h, read-out: Leishmanicidal activity EC50 (converted)): 70.5 µM; Cytotoxicity LC50 [2]: 13.9 ± 1.4 µg/mL; CC50 ([2]; read-out: Cytotoxicity LC50): 48.9 µM
Cc1cc(=O)oc2cc(O)ccc12 [7-Hydroxy-4-methylcoumarin (11), 7-hydroxy-4-methylcoumarin, reference compound] | 15.3 ± 0.1 |  |  |  | 
O=c1ccoc2cc(O)ccc12 [7-Hydroxychromone (20), 7-hydroxychromone, reference compound] | 14.8 ± 0.9 |  |  |  | 
C[C@@H]1[C@H](O)[C@@H](C)/C=C/C=C/C=C/C=C/C=C/C=C/C=C/[C@H](O[C@@H]2O[C@H](C)[C@@H](O)[C@H](N)[C@@H]2O)C[C@@H]2O[C@](O)(C[C@@H](O)C[C@@H](O)[C@H](O)CC[C@@H](O)C[C@@H](O)CC(=O)O[C@H]1C)C[C@H](O)[C@H]2C(=O)O [Amphotericin B, reference compound] |  | 42.1 µg/mL and 45.6 µM | 0.06 µg/mL and 100 nM |  | inhibition at 0.05 µg/mL ([3]; Dose employed: 0.05 µg/mL, intracellular amastigotes): 69.1 ± 1.3%
CC(C)=CCC/C(C)=C/COc1ccc2ccc(=O)oc2c1 [Aurapten, 7-geranyloxycoumarin] |  |  |  |  | IC50 (L. major): 30 µM
COc1ccc(/C=C/C(=O)c2ccc(OCCCOc3cc(Cl)ccc3Oc3ccc(Cl)cc3Cl)cc2)cc1OC [Compound 7, (2E)-1-(4-{3-[5-Chloro-2-(2,4-dichlorophenoxy)phenoxy]propoxy}phenyl)-3-(3,4-dimethoxyphenyl) prop-2-en-1-one] | 67.4 ± 17.2 | > 200 µg/mL and > 327 µM | 9.4 µg/mL and 15.4 µM | >21.3 | 
COc1ccc(/C=C/C(=O)c2ccc(OCCCCOc3cc(Cl)ccc3Oc3ccc(Cl)cc3Cl)cc2)cc1OC [Compound 8, (2E)-1-(4-{4-[5-Chloro-2-(2,4-dichlorophenoxy)phenoxy]butoxy}phenyl)-3-(3,4-dimethoxyphenyl) prop-2-en-1-one] | 67.8 ± 19 | > 200 µg/mL and > 319 µM | 10.2 µg/mL and 16.3 µM | >19.6 | 
COc1ccc(/C=C/C(=O)c2ccc(OCCCCCOc3cc(Cl)ccc3Oc3ccc(Cl)cc3Cl)cc2)cc1OC [Compound 9, (2E)-1-[4-({5-[5-Chloro-2-(2,4-dichlorophenoxy)phenoxy]pentyl}oxy)phenyl]-3-(3,4-imethoxyphenyl) prop-2-en-1-one] | 69.5 ± 8.6 | > 200 µg/mL and > 311 µM | 13.5 µg/mL and 21.1 µM | >14.8 | 
COc1ccc(/C=C/C(=O)c2ccc(OCCCCCCCCOc3cc(Cl)ccc3Oc3ccc(Cl)cc3Cl)cc2)cc1OC [Compound 10, (2E)-1-[4-({8-[5-Chloro-2-(2,4-dichlorophenoxy)phenoxy]octyl}oxy)phenyl]-3-(3,4-dimethoxyphenyl) prop-2-en-1-one] |  | > 200 µg/mL and > 293 µM |  |  | 
Cc1cc(=O)oc2cc(OCCCOc3cc(Cl)ccc3Oc3ccc(Cl)cc3Cl)ccc12 [Compound 16, 7-{3-[5-Chloro-2-(2,4-dichlorophenoxy)phenoxy]propoxy}-4-methyl-2H-chromen-2-one] | < 50 | > 200 µg/mL and > 397 µM |  |  | Leishmanicidal activity % Inhibition ([1]; at 20 µg/mL, 72 h): 34.0 ± 0.3%
Cc1cc(=O)oc2cc(OCCCCOc3cc(Cl)ccc3Oc3ccc(Cl)cc3Cl)ccc12 [Compound 17, 7-{4-[5-Chloro-2-(2,4-dichlorophenoxy)phenoxy]butoxy}-4-methyl-2H-chromen-2-one] | 57.1 ± 11.5 | > 200 µg/mL and > 386 µM | 27.5 µg/mL and 53.1 µM | >7.3 | 
Cc1cc(=O)oc2cc(OCCCCCOc3cc(Cl)ccc3Oc3ccc(Cl)cc3Cl)ccc12 [Compound 18, 7-({5-[5-Chloro-2-(2,4-dichlorophenoxy)phenoxy]pentyl}oxy)-4-methyl-2H-chromen-2-one] |  | > 200 µg/mL and > 376 µM |  |  | 
Cc1cc(=O)oc2cc(OCCCCCCCCOc3cc(Cl)ccc3Oc3ccc(Cl)cc3Cl)ccc12 [Compound 19, 7-({8-[5-Chloro-2-(2,4-dichlorophenoxy)phenoxy]octyl}oxy)-4-methyl-2H-chromen-2-one] |  | > 200 µg/mL and > 348 µM |  |  | 
O=c1ccoc2cc(OCCCOc3cc(Cl)ccc3Oc3ccc(Cl)cc3Cl)ccc12 [Compound 25, 7-{3-[5-Chloro-2-(2,4-dichlorophenoxy)phenoxy]propoxy}-4H-chromen-4-one] | 94.4 ± 2.9 | 6.4 µg/mL and 13.1 µM | 2.7 µg/mL and 5.5 µM | 2.4 | 
O=c1ccoc2cc(OCCCCOc3cc(Cl)ccc3Oc3ccc(Cl)cc3Cl)ccc12 [Compound 26, 7-{4-[5-Chloro-2-(2,4-dichlorophenoxy)phenoxy]butoxy}-4H-chromen-4-one] | 91 ± 9.6 | 15.8 µg/mL and 31.3 µM | 7.5 µg/mL and 14.9 µM | 2.1 | 
O=c1ccoc2cc(OCCCCCOc3cc(Cl)ccc3Oc3ccc(Cl)cc3Cl)ccc12 [Compound 27, 7-({5-[5-Chloro-2-(2,4-dichlorophenoxy)phenoxy]pentyl}oxy)-4H-chromen-4-one] | 75.5 ± 1.5 | 25.8 µg/mL and 49.8 µM | 16 µg/mL and 30.9 µM | 1.6 | 
O=c1ccoc2cc(OCCCCCCCCOc3cc(Cl)ccc3Oc3ccc(Cl)cc3Cl)ccc12 [Compound 28, 7-({8-[5-Chloro-2-(2,4-dichlorophenoxy)phenoxy]octyl}oxy)-4H-chromen-4-one] | 28.4 ± 2.1 | 80 µg/mL and 143 µM |  |  | 
Oc1cc(Cl)ccc1Oc1ccc(Cl)cc1Cl [Triclosan] |  |  |  | 1.3 | EC50 ([1]; U-937, 72 h, read-out: Leishmanicidal activity EC50): 18.3 µg/mL and 63.2 µM; effective concentration (EC50) [4]: < 24 µg/mL; inhibition at 20 µg/mL [3]: 61.8 ± 5.5%
meglumine antimoniate [Sb(V), reference compound] |  |  |  |  | Leishmanicidal activity % Inhibition ([1]; Dose employed: 10 µg/mL, 72 h): 79.4 ± 2.1 ^h %; Cytotoxicity LC50 [2]: 495.9 ± 55.6 µg/mL
